Measured values as given in patent US12459899B2, “Isoquinolinone derivatives, method for preparing the same, and pharmaceutical composition for preventing or treating poly(ADP-ribose) polymerase-1-related diseases, comprising the same as active ingredient” (DIGMBIO. INC., priority 2019, dated 2025).

Target: PARP-1 (poly[ADP-ribose] polymerase 1) enzyme (Homo sapiens (Human), UniProt P09874)
Experiment: PARP-1 (poly[ADP-ribose] polymerase 1) enzyme inhibitory ability, Trevigen assay kit
Format: biochemical
Conditions: 1 nM compound; read-out: PAR P-1 Inhibitory ability at 1 nM
Procedure, shortened: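 Human PARP-1 activity was measured with a Trevigen assay kit in histone-coated 96-well plates rehydrated with 50 μL of 1×PARP buffer for 30 minutes. Enzyme (0.5 unit/well) and compound were preincubated 10 minutes at room temperature, then 25 μL of 1×PARP cocktail with biotinylated NAD and activated DNA was added for 1 hour.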

Chain of PARP-1 (poly[ADP-ribose] polymerase 1) enzyme (P09874 whole entry): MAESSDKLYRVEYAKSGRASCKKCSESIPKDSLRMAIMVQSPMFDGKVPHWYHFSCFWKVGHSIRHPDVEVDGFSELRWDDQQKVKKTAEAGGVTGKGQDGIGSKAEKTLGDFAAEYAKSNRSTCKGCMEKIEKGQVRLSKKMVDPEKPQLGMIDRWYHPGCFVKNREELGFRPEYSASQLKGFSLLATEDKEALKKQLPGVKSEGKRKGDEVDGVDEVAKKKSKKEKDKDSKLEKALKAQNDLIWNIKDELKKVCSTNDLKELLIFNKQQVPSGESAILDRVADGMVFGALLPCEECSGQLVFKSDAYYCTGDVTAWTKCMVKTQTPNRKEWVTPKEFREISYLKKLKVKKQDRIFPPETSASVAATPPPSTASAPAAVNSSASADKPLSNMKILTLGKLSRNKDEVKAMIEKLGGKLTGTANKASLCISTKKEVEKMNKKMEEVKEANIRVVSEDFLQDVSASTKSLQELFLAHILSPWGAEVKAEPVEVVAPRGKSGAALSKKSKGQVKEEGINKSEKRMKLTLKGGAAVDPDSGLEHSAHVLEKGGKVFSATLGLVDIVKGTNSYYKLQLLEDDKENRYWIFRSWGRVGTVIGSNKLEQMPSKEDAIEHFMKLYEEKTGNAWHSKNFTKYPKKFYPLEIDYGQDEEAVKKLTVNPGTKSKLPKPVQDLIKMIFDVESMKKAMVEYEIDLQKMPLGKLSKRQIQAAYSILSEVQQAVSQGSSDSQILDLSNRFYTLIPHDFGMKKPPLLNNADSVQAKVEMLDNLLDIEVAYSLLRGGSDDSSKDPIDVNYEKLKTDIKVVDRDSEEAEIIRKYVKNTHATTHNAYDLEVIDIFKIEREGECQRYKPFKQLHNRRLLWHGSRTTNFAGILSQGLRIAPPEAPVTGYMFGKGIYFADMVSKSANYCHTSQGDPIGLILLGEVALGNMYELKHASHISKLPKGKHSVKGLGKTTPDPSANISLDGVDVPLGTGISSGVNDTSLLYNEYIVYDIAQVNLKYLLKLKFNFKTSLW

| inhibition at 0.001 µM | SMILES |
| --- | --- |
| < 50% | O=C(CCc1cc2cccc(F)c2c(=O)[nH]1)N1CC=C(c2ccc(F)nc2)CC1 [Example 85, 8-fluoro-3-(3-(6-fluoro-3′,6′-dihydro-[3,4′-bipyridine]-1′(2′H)-yl)-3-oxopropyl)isoquinolin-1(2H)-one] |
| < 50% | O=C(CCc1cc2cccc(F)c2c(=O)[nH]1)N1CC=C(c2ccc(F)cn2)CC1 [Example 86] |
| < 50% | N#Cc1cc(C2=CCN(C(=O)CCc3cc4cccc(F)c4c(=O)[nH]3)CC2)ccc1F [Example 87, 2-fluoro-5-(1-(3-(8-fluoro-1-oxo-1,2-dihydroisoquinolin-3-yl)propanoyl)-1,2,3,6-tetrahydropyridin-4-yl)benzonitrile] |
| < 50% | O=C(CCc1cc2cccc(F)c2c(=O)[nH]1)N1CCN(c2cccc(F)c2)CC1 [Example 89, 8-fluoro-3-(3-(4-(3-fluorophenyl)piperazin-1-yl)-3-oxopropyl)isoquinolin-1(2H)-one] |
| < 50% | O=C(CCc1cc2cccc(F)c2c(=O)[nH]1)N1CC=C(c2ccnc(F)c2)CC1 [Example 92, 8-fluoro-3-(3-(2′-fluoro-3,6-dihydro-[4,4′-bipyridine]-1(2H)-yl)-3-oxopropyl)isoquinolin-1(2H)-one] |
| < 50% | N#Cc1ccc(C2=CCN(C(=O)CCc3cc4cccc(F)c4c(=O)[nH]3)CC2)cn1 [Example 93, 1′-(3-(8-fluoro-1-oxo-1,2-dihydroisoquinolin-3-yl)propanoyl)-1′,2′,3′,6′-tetrahydro-[3,4′-bipyridine]-6-carbonitrile] |
| < 50% | N#Cc1ccc(N2CCN(C(=O)CCc3cc4ccc(F)cc4c(=O)[nH]3)CC2)cc1 [Example 94, 4-(4-(3-(7-fluoro-1-oxo-1,2-dihydroisoquinolin-3-yl)propanoyl)piperazin-1-yl)benzonitrile] |
| < 50% | N#Cc1ccc(C2=CCN(C(=O)CCc3cc4ccc(F)cc4c(=O)[nH]3)CC2)cc1 [Example 95, 4-(1-(3-(7-fluoro-1-oxo-1,2-dihydroisoquinolin-3-yl)propanoyl)-1,2,3,6-tetrahydropyridin-4-yl)benzonitrile] |
| < 50% | N#Cc1ccc(C2=CCN(C(=O)CCc3cc4ccc(F)cc4c(=O)[nH]3)CC2)nc1 [Example 96, 1′-(3-(7-fluoro-1-oxo-1,2-dihydroisoquinolin-3-yl)propanoyl)-1′,2′,3′,6′-tetrahydro-[2,4′-bipyridine]-5-carbonitrile] |
| < 50% | N#Cc1ccc(N2CCN(C(=O)CCc3cc4ccc(F)cc4c(=O)[nH]3)CC2)cn1 [Example 97, 5-(4-(3-(7-fluoro-1-oxo-1,2-dihydroisoquinolin-3-yl)propanoyl)piperazin-1-yl)picolinonitrile] |
| < 50% | N#Cc1ccccc1N1CCN(C(=O)CCc2cc3ccc(F)cc3c(=O)[nH]2)CC1 [Example 98, 2-(4-(3-(7-fluoro-1-oxo-1,2-dihydroisoquinolin-3-yl)propanoyl)piperazin-1-yl)benzonitrile] |
| < 50% | N#Cc1ccc(N2CCN(C(=O)CCc3cc4ccc(F)cc4c(=O)[nH]3)CC2)nc1 [Example 99, 6-(4-(3-(7-fluoro-1-oxo-1,2-dihydroisoquinolin-3-yl)propanoyl)piperazin-1-yl)nicotinonitrile] |
| < 50% | N#Cc1ccc(N2CCN(C(=O)CCc3cc4ccc(F)cc4c(=O)[nH]3)CC2)c(F)c1 [Example 100, 3-fluoro-4-(4-(3-(7-fluoro-1-oxo-1,2-dihydroisoquinolin-3-yl)propanoyl)piperazin-1-yl)benzonitrile] |
| < 50% | N#Cc1ccc(N2CCN(C(=O)CCc3cc4ccc(F)cc4c(=O)[nH]3)CC2)cc1F [Example 101, 2-fluoro-4-(4-(3-(7-fluoro-1-oxo-1,2-dihydroisoquinolin-3-yl)propanoyl)piperazin-1-yl)benzonitrile] |
| < 50% | O=C(CCc1cc2ccc(F)cc2c(=O)[nH]1)N1CC=C(c2ccc(F)nc2)CC1 [Example 102] |
| < 50% | O=C(CCc1cc2ccc(F)cc2c(=O)[nH]1)N1CC=C(c2ccc(F)cn2)CC1 [Example 103, 7-fluoro-3-(3-(5-fluoro-3′,6′-dihydro-[2,4′-bipyridine]-1′(2′H)-yl)-3-oxopropyl)isoquinolin-1(2H)-one] |
| < 50% | O=C(CCc1cc2ccc(F)cc2c(=O)[nH]1)N1CC=C(c2ccc(F)cc2)CC1 [Example 104, 7-fluoro-3-(3-(4-(4-fluorophenyl)-3,6-dihydropyridin-1(2H)-yl)-3-oxopropyl)isoquinolin-1(2H)-one] |
| < 50% | O=C(CCc1cc2ccc(F)cc2c(=O)[nH]1)N1CCN(c2ccc(Cl)cc2)CC1 [Example 105, 3-(3-(4-(4-chlorophenyl)piperazin-1-yl)-3-oxopropyl)-7-fluoroisoquinolin-1(2H)-one] |

| inhibition at 0.001 µM | SMILES |
| --- | --- |
| < 50% | O=C(CCc1cc2ccc(F)cc2c(=O)[nH]1)N1CCN(c2ccc(F)cc2F)CC1 [Example 106, 3-(3-(4-(2,4-difluorophenyl)piperazin-1-yl)-3-oxopropyl)-7-fluoroisoquinolin-1(2H)-one] |
| < 50% | N#Cc1ccc(F)c(N2CCN(C(=O)CCc3cc4ccc(F)cc4c(=O)[nH]3)CC2)c1 [Example 107, 4-fluoro-3-(4-(3-(7-fluoro-1-oxo-1,2-dihydroisoquinolin-3-yl)propanoyl)piperazin-1-yl)benzonitrile] |
| < 50% | N#Cc1ccc(F)cc1N1CCN(C(=O)CCc2cc3ccc(F)cc3c(=O)[nH]2)CC1 [Example 108, 4-fluoro-2-(4-(3-(7-fluoro-1-oxo-1,2-dihydroisoquinolin-3-yl)propanoyl)piperazin-1-yl)benzonitrile] |
| < 50% | N#Cc1cc(N2CCN(C(=O)CCc3cc4ccc(F)cc4c(=O)[nH]3)CC2)ccc1F [Example 109, 2-fluoro-5-(4-(3-(7-fluoro-1-oxo-1,2-dihydroisoquinolin-3-yl)propanoyl)piperazin-1-yl)benzonitrile] |
| < 50% | N#Cc1cc(F)ccc1N1CCN(C(=O)CCc2cc3ccc(F)cc3c(=O)[nH]2)CC1 [Example 110, 5-fluoro-2-(4-(3-(7-fluoro-1-oxo-1,2-dihydroisoquinolin-3-yl)propanoyl)piperazin-1-yl)benzonitrile] |
| < 50% | N#Cc1ccc(F)c(C2=CCN(C(=O)CCc3cc4ccc(F)cc4c(=O)[nH]3)CC2)c1 [Example 111, 4-fluoro-3-(1-(3-(7-fluoro-1-oxo-1,2-dihydroisoquinolin-3-yl)propanoyl)-1,2,3,6-tetrahydropyridin-4-yl)benzonitrile] |
| < 50% | N#Cc1cc(F)ccc1C1=CCN(C(=O)CCc2cc3ccc(F)cc3c(=O)[nH]2)CC1 [Example 112, 5-fluoro-2-(1-(3-(7-fluoro-1-oxo-1,2-dihydroisoquinolin-3-yl)propanoyl)-1,2,3,6-tetrahydropyridin-4-yl)benzonitrile] |
| < 50% | O=C(CCc1cc2ccc(F)cc2c(=O)[nH]1)N1CC=C(c2ccc(F)cc2F)CC1 [Example 113, 3-(3-(4-(2,4-difluorophenyl)-3,6-dihydropyridin-1(2H)-yl)-3-oxopropyl)-7-fluoroisoquinolin-1(2H)-one] |
| < 50% | N#Cc1cc(F)cc(C2=CCN(C(=O)CCc3cc4ccc(F)cc4c(=O)[nH]3)CC2)c1 [Example 114, 3-fluoro-5-(1-(3-(7-fluoro-1-oxo-1,2-dihydroisoquinolin-3-yl)propanoyl)-1,2,3,6-tetrahydropyridin-4-yl)benzonitrile] |
| < 50% | O=C(CCc1cc2ccc(F)cc2c(=O)[nH]1)N1CC=C(c2cccc(F)c2)CC1 [Example 115, 7-fluoro-3-(3-(4-(3-fluorophenyl)-3,6-dihydropyridin-1(2H)-yl)-3-oxopropyl)isoquinolin-1(2H)-one] |
| < 50% | O=C(CCc1cc2ccc(F)cc2c(=O)[nH]1)N1CC[C@H](c2ccc(F)cc2)C1 [Example 116, (R)-7-fluoro-3-(3-(3-(4-fluorophenyl)pyrrolidin-1-yl)-3-oxopropyl)isoquinolin-1(2H)-one] |
| < 50% | O=C(CCc1cc2ccc(F)cc2c(=O)[nH]1)N1CC[C@@H](c2ccc(F)cc2)C1 [Example 117, (S)-7-fluoro-3-(3-(3-(4-fluorophenyl)pyrrolidin-1-yl)-3-oxopropyl)isoquinolin-1(2H)-one] |
| < 50% | O=C(CCc1cc2ccc(F)cc2c(=O)[nH]1)N1CCN(c2ccc(C(F)(F)F)cc2)CC1 [Example 118, 7-fluoro-3-(3-oxo-3-(4-(4-(trifluoromethyl)phenyl)piperazin-1-yl)propyl)isoquinolin-1(2H)-one] |
| < 50% | N#Cc1cc(F)cc(N2CCN(C(=O)CCc3cc4ccc(F)cc4c(=O)[nH]3)CC2)c1 [Example 119, 3-fluoro-5-(4-(3-(7-fluoro-1-oxo-1,2-dihydroisoquinolin-3-yl)propanoyl)piperazin-1-yl)benzonitrile] |
| < 50% | O=C(CCc1cc2ccc(F)cc2c(=O)[nH]1)N1CCN(c2cccc(F)c2)CC1 [Example 120, 7-fluoro-3-(3-(4-(3-fluorophenyl)piperazin-1-yl)-3-oxopropyl)isoquinolin-1(2H)-one] |
| < 50% | O=C(CCc1cc2ccc(F)cc2c(=O)[nH]1)N1CC=C(c2ccnc(F)c2)CC1 [Example 121, 7-fluoro-3-(3-(2′-fluoro-3,6-dihydro-[4,4′-bipyridine]-1(2H)-yl)-3-oxopropyl)isoquinolin-1(2H)-one] |
| < 50% | Cc1ccc(F)c2c(=O)[nH]c(CCC(=O)N3CCN(c4ccc(C#N)cc4)CC3)cc12 [Example 122, 4-(4-(3-(8-fluoro-5-methyl-1-oxo-1,2-dihydroisoquinolin-3-yl)propanoyl)piperazin-1-yl)benzonitrile] |

Same assay, conditions: PARP-1 enzyme activity

| IC50 | SMILES |
| --- | --- |
| 1.05 nM | N#Cc1ccc(N2CCN(C(=O)CCc3cc4ccc(F)cc4c(=O)[nH]3)CC2)nc1 [Example 99, 6-(4-(3-(7-fluoro-1-oxo-1,2-dihydroisoquinolin-3-yl)propanoyl)piperazin-1-yl)nicotinonitrile] |
| 0.91 nM | O=C(CCc1cc2ccc(F)cc2c(=O)[nH]1)N1CC=C(c2ccc(F)cn2)CC1 [Example 103, 7-fluoro-3-(3-(5-fluoro-3′,6′-dihydro-[2,4′-bipyridine]-1′(2′H)-yl)-3-oxopropyl)isoquinolin-1(2H)-one] |
